Reference: patent publication US10336730B2, “Substituted glycine derived FXIA inhibitors” (BRISTOL-MYERS SQUIBB COMPANY, priority 2015, dated 2019)
pKi: −log10 of the molar value.

biological target: T1, purified human Factor XIa (Homo sapiens, UniProt P03951); test: Factor XIa enzyme inhibition assay (chromogenic substrate S-2366), Ki; type: biochemical; details: substrate S-2366, pH 7.4
T1 construct: purchased Haematologic Technologies
Procedure: The effectiveness of compounds of the present invention as inhibitors of the coagulation Factors XIa, VIIa, IXa, Xa, XIIa, plasma kallikrein, thrombin, chemytrypsin or trypsin can be determined using a relevant purified serine protease, respectively, and an appropriate synthetic substrate. The rate of hydrolysis of the chromogenic or fluorogenic substrate by the relevant serine protease was measured both in the absence and presence of compounds of the present invention. […] A decrease in the rate of absorbance or fluorescence change in the presence of inhibitor is indicative of enzyme inhibition. Such methods are known to one skilled in the art. The results of this assay are expressed as the inhibitory constant, Ki.
Factor XIa determinations were made in 50 mM HEPES buffer at pH 7.4 containing 145 mM NaCl, 5 mM KCl, and 0.1% PEG 8000 (polyethylene glycol; JT Baker or Fisher Scientific). Determinations were made using purified human Factor XIa at a final concentration of […] (Haematologic Technologies) and the synthetic substrate S-2366 (pyroGlu-Pro-Arg-pNA; CHROMOGENIX® or AnaSpec) at a concentration of 0.0002-0.001 M.
Values of Ki were determined by allowing the protease to react with the substrate in the presence of the inhibitor. Reactions were allowed to go for periods of 20-180 minutes (depending on the protease) and the velocities (rate of absorbance or fluorescence change versus time) were measured. The following relationships were used to calculate Ki values: (Vmax*S)/(Km+S) (vo−vs)/vs=I/(Ki*(1+S/Km)) for a competitive inhibitor with one binding site; or vs/vo=A+(B−A)/(1+(IC50/(I)^n)); and Ki=IC50/(1+S/Km) for a competitive inhibitor where: […]

T1 sequence (P03951 388-625 limits assumed): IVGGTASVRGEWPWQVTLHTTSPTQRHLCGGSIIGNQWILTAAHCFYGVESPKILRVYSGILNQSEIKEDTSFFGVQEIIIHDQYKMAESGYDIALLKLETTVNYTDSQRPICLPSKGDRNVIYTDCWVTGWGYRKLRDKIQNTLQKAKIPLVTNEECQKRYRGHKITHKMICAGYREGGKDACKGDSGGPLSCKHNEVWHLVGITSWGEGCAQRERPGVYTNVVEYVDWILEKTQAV
T1 sequence (P03951 19-387 partner limits assumed): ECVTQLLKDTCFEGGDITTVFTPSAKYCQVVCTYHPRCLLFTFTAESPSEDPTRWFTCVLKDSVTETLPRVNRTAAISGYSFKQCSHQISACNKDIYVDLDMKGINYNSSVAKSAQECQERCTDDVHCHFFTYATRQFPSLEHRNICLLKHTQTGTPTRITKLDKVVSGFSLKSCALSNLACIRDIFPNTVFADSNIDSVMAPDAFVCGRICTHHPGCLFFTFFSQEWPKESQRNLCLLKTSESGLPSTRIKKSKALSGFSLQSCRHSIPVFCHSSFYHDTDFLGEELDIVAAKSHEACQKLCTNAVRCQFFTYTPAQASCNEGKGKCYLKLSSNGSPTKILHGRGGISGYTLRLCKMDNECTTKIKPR

Compound | pKi
CN1CCC(CNC(=O)[C@H](Cc2ccccc2)n2cnc(-c3cc(Cl)ccc3-n3cc(Cl)nn3)cc2=O)C1 (mixture of isomers) [Example 48, (2S)-2-(4-(5-chloro-2-(4-chloro-1H-1,2,3-triazol-1-yl)phenyl)-6-oxopyrimidin-1(6H)-yl)-N-((1-methylpyrrolidin-3-yl)methyl)-3-phenylpropanamide] | 5.13
O=C([C@H](Cc1ccccc1)n1cnc(-c2cc(Cl)ccc2-n2cc(Cl)nn2)cc1=O)N1CCC(N2C(=O)CCC2O)CC1 (mixture of isomers) [Example 49, 6-(5-chloro-2-(4-chloro-1H-1,2,3-triazol-1-yl)phenyl)-3-((2S)-1-(4-(2-hydroxy-5-oxopyrrolidin-1-yl)piperidin-1-yl)-1-oxo-3-phenylpropan-2-yl)pyrimidin-4(3H)-one] | 5.13
NC(=O)c1cccc(C[C@@H](C(=O)Nc2ccc(C(=O)O)cc2)N2CCC(c3cc(Cl)ccc3-n3ccnn3)=CC2=O)c1 [Compound 139, (S)-4-(3-(3-carbamoylphenyl)-2-(4-(5-chloro-2-(1H-1,2,3-triazol-1-yl)phenyl)-6-oxo-3,6-dihydropyridin-1(2H)-yl)propanamido)benzoic Acid] | 7.60
O=C(Nc1ncn(CC2CCCC2)n1)[C@H](Cc1ccccc1)n1cnc(-c2cc(Cl)ccc2-n2cc(Cl)nn2)cc1=O [Example 21, (S)-2-(4-(5-chloro-2-(4-chloro-1H-1,2,3-triazol-1-yl)phenyl)-6-oxopyrimidin-1(6H)-yl)-N-(1-(cyclopentylmethyl)-1H-1,2,4-triazol-3-yl)-3-phenylpropanamide] | 6.26
O=C(Nc1cccc2[nH]ccc12)[C@H](Cc1ccccc1)n1cnc(-c2cc(Cl)ccc2-n2cc(Cl)nn2)cc1=O [Example 26, (S)-2-(4-(5-chloro-2-(4-chloro-1H-1,2,3-triazol-1-yl)phenyl)-6-oxopyrimidin-1(6H)-yl)-N-(1H-indol-4-yl)-3-phenylpropanamide] | 7.65
Cn1cnc2cc(NC(=O)[C@H](Cc3ccccc3)n3cnc(-c4cc(Cl)ccc4-n4cc(Cl)nn4)cc3=O)cnc21 [Example 27, (S)-2-(4-(5-chloro-2-(4-chloro-1H-1,2,3-triazol-1-yl)phenyl)-6-oxopyrimidin-1(6H)-yl)-N-(3-methyl-3H-imidazo[4,5-b]pyridin-6-yl)-3-phenylpropanamide] | 6.38
O=C(Nc1ccc2c(c1)CS(=O)(=O)C2)[C@H](Cc1ccccc1)n1cnc(-c2cc(Cl)ccc2-n2cc(Cl)nn2)cc1=O [Example 28, (S)-2-(4-(5-chloro-2-(4-chloro-1H-1,2,3-triazol-1-yl)phenyl)-6-oxopyrimidin-1(6H)-yl)-N-(2,2-dioxido-1,3-dihydrobenzo[c]thiophen-5-yl)-3-phenylpropanamide] | 7.10
O=C(Nc1ccc2ncncc2c1)[C@H](Cc1ccccc1)n1cnc(-c2cc(Cl)ccc2-n2cc(Cl)nn2)cc1=O [Example 31, (S)-2-(4-(5-chloro-2-(4-chloro-1H-1,2.3-triazol-1-yl)phenyl)-6-oxopyrimidin-1(6H)-yl)-3-phenyl-N-(quinazolin-6-yl)propanamide] | 7.99
Cn1cc(NC(=O)[C@H](Cc2ccccc2)n2cnc(-c3cc(Cl)ccc3-n3cc(Cl)nn3)cc2=O)nn1 [Example 32, (S)-2-(4-(5-chloro-2-(4-chloro-1H-1,2,3-triazol-1-yl)phenyl)-6-oxopyrimidin-1(6H)-yl)-N-(1-methyl-1H-1,2,3-triazol-4-yl)-3-phenylpropanamide] | 6.47
CCOC(=O)Cn1ccc(NC(=O)[C@H](Cc2ccccc2)n2cnc(-c3cc(Cl)ccc3-n3cc(Cl)nn3)cc2=O)n1 [Example 34, ethyl (S)-2-(3-(2-(4-(5-chloro-2-(4-chloro-1H-1,2,3-triazol-1-yl)phenyl)-6-oxopyrimidin-1(6H)-yl)-3-phenylpropanamido)-1H-pyrazol-1-yl)acetate] | 5.78
CC1(C)Oc2ccc(NC(=O)[C@H](Cc3ccccc3)n3cnc(-c4cc(Cl)ccc4-n4cc(Cl)nn4)cc3=O)nc2NC1=O [Example 35, (S)-2-(4-(5-chloro-2-(4-chloro-1H-1,2,3-triazol-1-yl)phenyl)-6-oxopyrimidin-1(6H)-yl)-N-(2,2-dimethyl-3-oxo-3,4-dihydro-2H-pyrido[3,2-b][1,4]oxazin-6-yl)-3-phenylpropanamide] | 5.39
O=C(Nc1cnns1)[C@H](Cc1ccccc1)n1cnc(-c2cc(Cl)ccc2-n2cc(Cl)nn2)cc1=O [Example 36, (S)-2-(4-(5-chloro-2-(4-chloro-1H-1,2,3-triazol-1-yl)phenyl)-6-oxopyrimidin-1(6H)-yl)-3-phenyl-N-(1,2,3-thiadiazol-5-yl)propanamide] | 5.87

The remaining compounds from weak to strong by pKi, led by results:

pKi | Compound
6.79 | O=C(Nc1cccc2ncccc12)[C@H](Cc1ccccc1)n1cnc(-c2cc(Cl)ccc2-n2cc(Cl)nn2)cc1=O [Example 29, (S)-2-(4-(5-chloro-2-(4-chloro-1H-1,2,3-triazol-1-yl)phenyl)-6-oxopyrimidin-1(6H)-yl)-3-phenyl-N-(quinolin-5-yl)propanamide]
6.89 | CCOC(=O)Cc1ccc(NC(=O)[C@H](Cc2ccccc2)n2cnc(-c3cc(Cl)ccc3-n3cc(Cl)nn3)cc2=O)cc1 [Example 20, ethyl (S)-2-(4-(2-(4-(5-chloro-2-(4-chloro-1H-1,2,3-triazol-1-yl)phenyl)-6-oxopyrimidin-1(6H)-yl)-3-phenylpropanamido)phenyl)acetate]
6.95 | O=C(Nc1ccc(Cc2ccncc2)cc1)[C@H](Cc1ccccc1)n1cnc(-c2cc(Cl)ccc2-n2cc(Cl)nn2)cc1=O [Example 24, (S)-2-(4-(5-chloro-2-(4-chloro-1H-1,2,3-triazol-1-yl)phenyl)-6-oxopyrimidin-1(6H)-yl)-3-phenyl-N-(4-(pyridin-4-ylmethyl)phenyl)propanamide]
7.08 | COC(=O)c1ccc(NC(=O)[C@H](Cc2ccccc2)n2cnc(-c3cc(Cl)ccc3-n3cc(Cl)nn3)cc2=O)cc1 [Example 22, methyl (S)-4-(2-(4-(5-chloro-2-(4-chloro-1H-1,2,3-triazol-1-yl)phenyl)-6-oxopyrimidin-1(6H)-yl)-3-phenylpropanamido)benzoate]
7.30 | O=C(Nc1ccc(-c2ccncc2)cc1)[C@H](Cc1ccccc1)n1cnc(-c2cc(Cl)ccc2-n2cc(Cl)nn2)cc1=O [Example 25, (S)-2-(4-(5-chloro-2-(4-chloro-1H-1,2,3-triazol-1-yl)phenyl)-6-oxopyrimidin-1(6H)-yl)-3-phenyl-N-(4-(pyridin-4-yl)phenyl)propanamide]
7.38 | N#Cc1cccc(C[C@@H](C(=O)Nc2ccc(C(=O)O)cc2)N2CCC(c3cc(Cl)ccc3-n3ccnn3)=CC2=O)c1 [Compound 138, (S)-4-(2-(4-(5-chloro-2-(1H-1,2,3-triazol-1-yl)phenyl)-6-oxo-3,6-dihydropyridin-1(2H)-yl)-3-(3-cyanophenyl)propanamido) benzoic Acid]
7.42 | Cc1nc2ccc(NC(=O)[C@H](Cc3ccccc3)n3cnc(-c4cc(Cl)ccc4-n4cc(Cl)nn4)cc3=O)cc2o1 [Example 33, (S)-2-(4-(5-chloro-2-(4-chloro-1H-1,2,3-triazol-1-yl)phenyl)-6-oxopyrimidin-1(6H)-yl)-N-(2-methylbenzo[d]oxazol-6-yl)-3-phenylpropanamide]
